According to publication PMC8710297, “Identification of potent SENP1 inhibitors that inactivate SENP1/JAK2/STAT signaling pathway and overcome platinum drug resistance in ovarian cancer” (Clinical and Translational Medicine, 2021):
Where “and” joins values, the source holds several entries; their conditions need not be identical. Equal values may be shown once.

Key:
SENP1 [1] = target: T1, SENP1 (Homo sapiens, UniProt Q9P0U3); experiment: In vitro deSUMOylation assay (SUMOylated His-JAK2 + recombinant GST-SENP1); format: biochemical; settings: read-out: SENP1 inhibition in vitro IC50
T1 sequence (Q9P0U3 1-644): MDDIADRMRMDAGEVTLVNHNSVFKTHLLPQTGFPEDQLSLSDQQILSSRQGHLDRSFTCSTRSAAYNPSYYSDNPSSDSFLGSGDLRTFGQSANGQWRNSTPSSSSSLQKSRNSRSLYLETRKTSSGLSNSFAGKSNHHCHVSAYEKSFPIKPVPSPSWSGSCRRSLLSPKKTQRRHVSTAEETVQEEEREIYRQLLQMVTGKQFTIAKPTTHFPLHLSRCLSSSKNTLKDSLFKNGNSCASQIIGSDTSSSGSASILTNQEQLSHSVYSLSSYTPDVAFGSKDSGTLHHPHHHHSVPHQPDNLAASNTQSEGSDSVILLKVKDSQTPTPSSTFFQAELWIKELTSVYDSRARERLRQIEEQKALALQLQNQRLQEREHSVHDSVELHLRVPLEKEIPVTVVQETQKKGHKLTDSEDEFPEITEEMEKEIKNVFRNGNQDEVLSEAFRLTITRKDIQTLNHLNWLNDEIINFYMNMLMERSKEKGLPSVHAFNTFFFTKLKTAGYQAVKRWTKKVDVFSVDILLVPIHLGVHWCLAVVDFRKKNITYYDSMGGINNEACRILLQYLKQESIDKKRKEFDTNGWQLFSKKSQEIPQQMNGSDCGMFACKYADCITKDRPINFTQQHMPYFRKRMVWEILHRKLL
Procedure: (A) Collection of Momordin Ic (Mc) natural compound analogues. […] Cell proliferation was determined by the sulforhodamine B (SRB) assay. […] IGROV1 CR cells were incubated with Mc at indicated concentrations for 48 h and then harvested for Western blot for indicated proteins. […] IGROV1 CR cells were incubated with UA and then treated as in C. […] Intensity of SUMOylated JAK2 was measured by Quantity One software. […] Recombinant His‐JAK2 was SUMOylated by in vitro SUMOylation assay, and then SUMOylated JAK2 proteins were incubated with or without recombinant GST‐SENP1 together with Mc for 3 h. […] In vitro assay was performed as in (F). […]

SENP1 [2] = target: T1, SENP1; experiment: SENP1 activity in cells (SUMOylated JAK2, Western blot quantification); format: cell-based; design: endogenous in cells; host or cells: IGROV1 CR cells; settings: IGROV1 CR cells, 48 h
Procedure: (A) Collection of Momordin Ic (Mc) natural compound analogues. […] Cell proliferation was determined by the sulforhodamine B (SRB) assay. […] IGROV1 CR cells were incubated with Mc at indicated concentrations for 48 h and then harvested for Western blot for indicated proteins. […] IGROV1 CR cells were incubated with UA and then treated as in C. […] Intensity of SUMOylated JAK2 was measured by Quantity One software. […] Recombinant His‐JAK2 was SUMOylated by in vitro SUMOylation assay, and then SUMOylated JAK2 proteins were incubated with or without recombinant GST‐SENP1 together with Mc for 3 h. […] In vitro assay was performed as in (F).
(A) Synthesis of UA derivatives. Reagents and conditions: (i) Ac2O, DMAP, Pyridine, r.t.; (ii) Oxalyl chloride, CH2Cl2, r.t., overnight; (iii) amines, TEA, r.t., 0.5–4 h; (iv) NaOH a.q., MeOH/THF, r.t.; (v) amines, MeOH, reflux; (vi) K2CO3, DMF, 60°C. The detail of synthesis was included in supplemental materials. […] (C) IGROV1 CR cells treated with indicated UAMMC9 for 48 h. Cells were then harvested and lysates were resolved on sodium dodecyl sulphate‐polyacrylamide gel electrophoresis, followed by immunoblotting for indicated proteins. (D) Cellular thermal shift assay to examine the interaction of UAMMC9 with SENP1. IGROV1 CR cells were incubated with DMSO or UAMMC9 for 4 h before treatment as in Figure 2A. (E) In vitro thermal shift assay to analyze the interactions of UAMMC9 with purified GST‐SENP1(C603A). Stability of SENP1(C603A) was analyzed by using Western blot against SENP1 antibody. […] Surface of hydrophobic amino acid residues in catalytic cleft was shown in yellow and that of hydrophilic amino acid residues was shown in magenta. Key amino acid residues were highlighted. […] The pictures were generated by Chimera.

[3] = recombinant GST-SENP1, SUMOylated His-JAK2, 3 h
[4] = intensity of SUMOylated JAK2, read-out: SENP1 inhibition in cells IC50

SMILES | IC50 (SENP1 [1]; recombinant SENP1, SUMOylated JAK2) | IC50 (SENP1 [2]; SUMOylated JAK2, read-out: SENP1 activity in cells IC50) | IC50 (SENP1 [1]; [3]) | IC50 (SENP1 [2]; [4])
C[C@H]1[C@H](C)CC[C@]2(C(=O)NCC(=O)N(C)CCO)CC[C@]3(C)C(=CC[C@@H]4[C@@]5(C)CC[C@H](O)C(C)(C)[C@@H]5CC[C@]43C)[C@H]12 [UAMMC9] | 196 nM | 150 nM and 151 nM | – | –
C[C@H]1[C@H](C)CC[C@]2(C(=O)O)CC[C@]3(C)C(=CC[C@@H]4[C@@]5(C)CC[C@H](O)C(C)(C)[C@@H]5CC[C@]43C)[C@H]12 [UA, ursolic acid, reference compound] | – | – | 6.4 nM | 240 nM
CC1(C)CC[C@]2(C(=O)O)CC[C@]3(C)C(=CC[C@@H]4[C@@]5(C)CC[C@H](O[C@@H]6O[C@H](C(=O)O)[C@@H](O)[C@H](O[C@@H]7OC[C@@H](O)[C@H](O)[C@H]7O)[C@H]6O)C(C)(C)[C@@H]5CC[C@]43C)[C@@H]2C1 [Mc, Momordin Ιc] | – | – | 19900 nM | 31800 nM
